{"source": "patent US11617850B2", "about": "“Delivery systems and methods for electric plasma synthesis of nitric oxide” (The General Hospital Corporation, priority 2016, dated 2023)", "key": {"[1]": {"tested_on": "awake sheep with acute pulmonary hypertension, due to U46619 infusion", "experiment": "Inhaled electrically generated NO in awake sheep with acute pulmonary hypertension due to U46619 infusion", "type": "in vivo", "source_text": "Animal studies were approved by the Institutional Animal Care and Use Committee of Massachusetts General Hospital (Boston, Mass.). The NO generator 102 of the NO generation system 100 was coupled to a tracheostomy tube in a spontaneously breathing awake 35 kg sheep.\nTo induce pulmonary hypertension, a potent pulmonary vasoconstrictor U46619 (Cayman Chemical, Ann Arbor, Mich.), the analog of the endoperoxide prostaglandin H2, was infused intravenously to increase pulmonary arterial pressure (PAP) to 30 mmHg. The pulmonary arterial pressure and PAP was continuously monitored using a Gould 6600 amplifier system (Gould Electronics, Inc., Eastlake, Ohio).\nIn turn, the electric plasma discharge of the electrodes supplied NO gas to the spontaneously breathing awake sheep during those 0.8 seconds.\nTurning to FIGS. 11 and 12, the above-described operation of the NO system 200 (i.e., triggering the NO generator 102 for approximately 0.8 second during early inspiration, for example, 20 milliseconds after commencement of inspiration) was implemented during a NO exposure time 700. Prior to and following the NO exposure time 700, a baseline was generated. The NO generator 102 was configured to output approximately 20 ppm of NO for three different runs (FIG. 11) and was configured to output 5 ppm of NO for another run (FIG. 12).\nIn addition to PAP, the arterial oxygen saturation was also measured as a function of time in the awake sheep. […] Lastly, the relative arterial oxygen saturation was calculated as a function of time for all four periods of NO inhalation."}, "mice (C57BL6 male WT)": {"tested_on": "mice (C57BL6 male WT)", "experiment": "Mice breathing air or electrically generated 50 ppm NO in air for 28 days", "type": "in vivo", "conditions": "50 ppm NO in air", "source_text": "A second chamber 802 was supplied with 50 ppm of NO gas in air, generated by a spark plug generator using platinum-iridium electrodes and subsequently scavenged using 75 g Ca(OH). A plurality of mice (C57BL6 male WT) breathed the NO laden air for the same 28 day period. During the 28 day test, humidity, CO2, O2, NO, and NO2 were monitored intermittently.\nThroughout the 28 day test, the mice were weighed in weekly intervals to track a change in the body weight of the mice throughout the 28 day test. […] Once the 28 day test was complete, lung specimens from the mice were analyzed using a high resolution magnetic sector field inductively coupled mass spectrometer (Thermo Fisher, Bremen, Germany)."}}, "data": [{"smiles": "[N]=O", "note": "[NO, nitric oxide]", "values": [{"measurement": "arterial oxygen saturation (SaO2) during the NO exposure time", "setting": "[1]; 5 ppm NO inhaled", "value": "generally constant"}, {"measurement": "effect on pulmonary artery pressure (PAP) during the NO exposure time", "setting": "[1]; 5 ppm NO inhaled, one run", "value": "does not show a measurable effect"}, {"measurement": "arterial oxygen saturation (SaO2) during the NO exposure time", "setting": "[1]; 20 ppm NO inhaled", "value": "increases"}, {"measurement": "improvement of relative arterial oxygen saturation during the NO exposure time", "setting": "[1]; 20 ppm NO inhaled, three trials", "value": "approximately 10%"}, {"measurement": "lung histology (H&E staining of larynx, trachea, main bronchus, lung tissues)", "setting": "mice (C57BL6 male WT)", "value": "no evidence of lung inflammation or pathology"}, {"measurement": "iridium and platinum in lung specimens versus control mice (ICP mass spectrometry)", "setting": "mice (C57BL6 male WT); platinum-iridium electrodes, Ca(OH) scavenger", "value": "no detectable difference"}, {"measurement": "body weight gain versus mice breathing air", "setting": "mice (C57BL6 male WT); weighed weekly", "value": "did not differ"}]}]}
